Target: T1, P2X7 receptor (Homo sapiens, UniProt Q99572)
T1 construct: host or cells: THP-1 cells differentiated with LPS and IFN-γ
T1 sequence (Q99572 1-595): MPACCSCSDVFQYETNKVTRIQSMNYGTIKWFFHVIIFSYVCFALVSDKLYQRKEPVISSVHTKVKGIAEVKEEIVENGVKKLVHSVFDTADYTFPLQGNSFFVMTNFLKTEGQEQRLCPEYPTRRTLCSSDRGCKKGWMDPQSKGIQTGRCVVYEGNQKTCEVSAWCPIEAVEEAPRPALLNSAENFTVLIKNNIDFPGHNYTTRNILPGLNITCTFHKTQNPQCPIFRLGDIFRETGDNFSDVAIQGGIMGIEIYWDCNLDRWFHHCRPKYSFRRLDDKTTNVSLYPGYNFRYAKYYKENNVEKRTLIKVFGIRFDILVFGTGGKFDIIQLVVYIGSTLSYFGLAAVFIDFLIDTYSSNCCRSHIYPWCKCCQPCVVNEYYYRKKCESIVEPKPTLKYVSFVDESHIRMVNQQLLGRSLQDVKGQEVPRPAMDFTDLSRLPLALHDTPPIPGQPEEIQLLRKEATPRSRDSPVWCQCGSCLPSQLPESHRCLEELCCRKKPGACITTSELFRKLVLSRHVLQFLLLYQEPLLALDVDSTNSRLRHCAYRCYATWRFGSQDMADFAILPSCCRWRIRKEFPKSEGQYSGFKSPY
Experiment: IL-1β release assay (BzATP-stimulated, LPS/IFN-γ differentiated THP-1 cells, ELISA)
Type: cell-based
Conditions: for inhibition at 0.1 µM: at 0.1 μM (asterisk symbols); for inhibition at 0.3 µM: at 0.3 μM (plus symbols)
Experimental: THP-1 cells (ATCC Cat # 285-IF-100) are plated in 96 well plates at a concentration of 200,000 cells per well and allowed to differentiate in RPMI-1640 media (ATCC Cat # 30-2001) containing 10% FBS, 100 IU/mL penicillin, 100 ug/mL streptomycin, 100 ng/mL LPS and 100 ng/mL IFN-γ for 16 hours. Following differentiation, the cells are treated for an additional 2 hours in RPMI-1640 media containing 100 IU/mL penicillin, 100 ug/mL streptomycin and fresh LPS at 100 ng/mL. The cells are then pretreated for 30 minutes with the compound of interest at the appropriate concentration in RPMI media containing 100 IU/mL penicillin, 100 ug/mL streptomycin. Following the pretreatment 2′,3′-O-(4-benzoylbenzoyl)-adenosine 5′-triphosphate (Sigma Aldrich Cat# B6396) is added to a final concentration of 250 uM and the cells incubated for an additional 45 minutes. 30 uL of cell supernatant is then collected and […] levels determined via ELISA (R&D systems Cat. # HSLB50) according to manufacturer's recommendations using the Tecan Safire plate reader. Background adjusted IL-1β levels of drug treated and non-treated cells are used to calculate the percent inhibition.

inhibition at 0.1 µM [%] | inhibition at 0.3 µM [%] | SMILES
50 to 75 | – | CC12CC3CC(C)(C1)CC(CC(=O)Nc1cccc4c(=O)n(Cc5ccc(F)c(F)c5)ccc14)(C3)C2 [Compound 819]
≥ 75 | – | CC12CC3CC(C)(C1)CC(CC(=O)Nc1cccc4c(=O)n(CC5CCOCC5)ccc14)(C3)C2 [Compound 820]
≥ 75 | – | CC12CC3CC(C)(C1)CC(CC(=O)Nc1cccc4c1CCN(CCCN1CCOCC1)C4=O)(C3)C2 [Compound 822]
≥ 75 | – | Cc1cccnc1CN1CCc2c(NC(=O)CC34CC5CC(CC(C5)C3)C4)cccc2C1=O [Compound 825]
≥ 75 | – | NC(=O)CCn1ccc2c(NC(=O)CC34CC5CC(CC(C5)C3)C4)cccc2c1=O [Compound 829]
≥ 75 | – | O=C(CC12CC3CC(CC(C3)C1)C2)Nc1cccc2c1CCN(CC1CCOCC1)C2=O [Compound 833]
≥ 75 | – | CCN1CCCC1CN1CCc2c(NC(=O)CC34CC5CC(CC(C5)C3)C4)cccc2C1=O (stereo not drawn) [Compound 834]
≥ 75 | – | CC12CC3CC(C)(C1)CC(CC(=O)Nc1cccc4c(=O)n(Cc5c(F)cccc5F)ccc14)(C3)C2 [Compound 835]
≥ 75 | – | O=C(CC12CC3CC(CC(C3)C1)C2)Nc1cccc2c1CCN(CCCn1ccnc1)C2=O [Compound 836]
≥ 75 | – | CC(c1cccnc1)n1ccc2c(NC(=O)CC34CC5CC(CC(C5)C3)C4)cccc2c1=O (stereo not drawn) [Compound 837]
≥ 75 | – | CN1CCN(CCN2CCc3c(NC(=O)CC45CC6CC(CC(C6)C4)C5)cccc3C2=O)CC1 [Compound 842]
≥ 75 | – | O=C(CC12CC3CC(CC(C3)C1)C2)Nc1cccc2c(=O)n(CCO)ccc12 [Compound 845]
≥ 75 | – | CC(C)(C)OC(=O)N1CCCC1CN1CCc2c(NC(=O)CC34CC5CC(CC(C5)C3)C4)cccc2C1=O (stereo not drawn) [Compound 857]
50 to 75 | – | CC1CN(CCn2ccc3c(NC(=O)CC45CC6CC(CC(C6)C4)C5)cccc3c2=O)CC(C)O1 (stereo not drawn) [Compound 869]
≥ 75 | – | CC(C)Cn1ccc2c(NC(=O)CC34CC5CC(CC(C5)C3)C4)cccc2c1=O [Compound 871]
≥ 75 | – | O=C(CC12CC3CC(CC(C3)C1)C2)Nc1cccc2c1CCN(CC1COc3ccccc3O1)C2=O (stereo not drawn) [Compound 872]
≥ 75 | – | O=C(CC12CC3CC(CC(C3)C1)C2)Nc1cccc2c1CCNC2=O [Compound 874]
≥ 75 | – | O=C(CC12CC3CC(CC(C3)C1)C2)Nc1cccc2c1CCN(CC1CCNCC1)C2=O [Compound 875]
≥ 75 | – | CN1CCN(CCCN2CCc3c(NC(=O)CC45CC6CC(CC(C6)C4)C5)cccc3C2=O)CC1 [Compound 878]
≥ 75 | – | O=C(CC12CC3CC(CC(C3)C1)C2)Nc1cccc2c1CCN(CCCN1CCCC1)C2=O [Compound 880]
≥ 75 | – | NC(=O)[C@H](Cc1c[nH]cn1)n1ccc2c(NC(=O)CC34CC5CC(CC(C5)C3)C4)cccc2c1=O [Compound 882]
– | ≥ 75 | CC12CC3CC(C)(C1)CC(CC(=O)Nc1cccc4c(=O)n(CCCN5CCOCC5)ccc14)(C3)C2 [Compound 892]
– | ≥ 75 | CN1CCC(CN2CCc3c(NC(=O)CC45CC6CC(C)(CC(C)(C6)C4)C5)cccc3C2=O)CC1 [Compound 894]

The next lines start with the molecule.

SMILES | inhibition at 0.1 µM [%] | inhibition at 0.3 µM [%]
CC12CC3CC(C)(C1)CC(CC(=O)Nc1cccc4c(=O)n(Cc5ccc6c(c5)OCO6)ccc14)(C3)C2 [Compound 821] | ≥ 75 | –
CC12CC3CC(C)(C1)CC(CC(=O)Nc1cccc4c1CCN(Cc1ccc5c(c1)OCCO5)C4=O)(C3)C2 [Compound 823] | ≥ 75 | –
O=C(CC12CC3CC(CC(C3)C1)C2)Nc1cccc2c(=O)n(CCCn3ccnc3)ccc12 [Compound 824] | 50 to 75 | –
O=C(CC12CC3CC(CC(C3)C1)C2)Nc1cccc2c(=O)n(C(CO)CO)ccc12 [Compound 826] | ≥ 75 | –
O=C(CC12CC3CC(CC(C3)C1)C2)Nc1cccc2c1CCN(C(CO)CO)C2=O [Compound 827] | ≥ 75 | –
NC(=O)CN1CCc2c(NC(=O)CC34CC5CC(CC(C5)C3)C4)cccc2C1=O [Compound 828] | ≥ 75 | –
CC(c1ccccc1)N1CCc2c(NC(=O)CC34CC5CC(C)(CC(C)(C5)C3)C4)cccc2C1=O (stereo not drawn) [Compound 838] | ≥ 75 | –
CC12CC3CC(C)(C1)CC(CC(=O)Nc1cccc4c1CCN(Cc1ccccc1F)C4=O)(C3)C2 [Compound 839] | 50 to 75 | –
CC12CC3CC(C)(C1)CC(CC(=O)Nc1cccc4c1CCN(Cc1c(F)cccc1F)C4=O)(C3)C2 [Compound 840] | ≥ 75 | –
CC12CC3CC(C)(C1)CC(CC(=O)Nc1cccc4c(=O)[nH]ccc14)(C3)C2 [Compound 841] | ≥ 75 | –
CC(C)(CN1CCOCC1)N1CCc2c(NC(=O)CC34CC5CC(CC(C5)C3)C4)cccc2C1=O [Compound 843] | ≥ 75 | –
CC(c1ccccn1)n1ccc2c(NC(=O)CC34CC5CC(CC(C5)C3)C4)cccc2c1=O (stereo not drawn) [Compound 858] | ≥ 75 | –
CC(c1ccncc1)n1ccc2c(NC(=O)CC34CC5CC(CC(C5)C3)C4)cccc2c1=O (stereo not drawn) [Compound 859] | ≥ 75 | –
CCN(CC)CCn1ccc2c(NC(=O)CC34CC5CC(CC(C5)C3)C4)cccc2c1=O [Compound 870] | ≥ 75 | –
O=C(CC12CC3CC(CC(C3)C1)C2)Nc1cccc2c(=O)n(Cc3ccoc3)ccc12 [Compound 873] | ≥ 75 | –
O=C(CC12CC3CC(CC(C3)C1)C2)Nc1cccc2c1CCN(CCCN1CCOCC1)C2=O [Compound 876] | ≥ 75 | –
CN1CCCC1CCN1CCc2c(NC(=O)CC34CC5CC(CC(C5)C3)C4)cccc2C1=O (stereo not drawn) [Compound 879] | ≥ 75 | –
NC(=O)[C@@H](CC1CCCCC1)n1ccc2c(NC(=O)CC34CC5CC(CC(C5)C3)C4)cccc2c1=O [Compound 881] | ≥ 75 | –
O=C(CC12CC3CC(CC(C3)C1)C2)Nc1cccc2c(=O)n(C(CO)Cc3c[nH]cn3)ccc12 (stereo not drawn) [Compound 883] | ≥ 75 | –
O=C(CC12CC3CC(CC(C3)C1)C2)Nc1cccc2c(=O)n(Cc3nccs3)ccc12 [Compound 885] | ≥ 75 | –
CC(C)C(CO)n1ccc2c(NC(=O)CC34CC5CC(CC(C5)C3)C4)cccc2c1=O (stereo not drawn) [Compound 887] | ≥ 75 | –
CC(CO)n1ccc2c(NC(=O)CC34CC5CC(CC(C5)C3)C4)cccc2c1=O (stereo not drawn) [Compound 888] | – | ≥ 75
CC12CC3CC(C)(C1)CC(CC(=O)Nc1cccc4c(=O)n(CC5CCNCC5)ccc14)(C3)C2 [Compound 890] | – | ≥ 75
C=Cn1ccc2c(N(C)C(=O)CC34CC5CC(CC(C5)C3)C4)cccc2c1=O [Compound 891] | – | 50 to 75
CC(C)Cn1ccc2c(N(C)C(=O)CC34CC5CC(CC(C5)C3)C4)cccc2c1=O [Compound 893] | – | 25 to 50
CC12CC3CC(C)(C1)CC(CC(=O)Nc1cccc4c(=O)n(C(CO)CO)ccc14)(C3)C2 [Compound 895] | – | ≥ 75
C[C@@H](CO)n1ccc2c(NC(=O)CC34CC5CC(CC(C5)C3)C4)cccc2c1=O [Compound 896] | – | ≥ 75
C[C@H](CO)n1ccc2c(NC(=O)CC34CC5CC(CC(C5)C3)C4)cccc2c1=O [Compound 897] | – | ≥ 75

— patent publication US20090170838A1, “Bicycloheteroaryl compounds as P2X7 modulators and uses thereof” (Renovis, Inc., priority 2005, published 2009)
